# In US5493027A, “Anticonvulsive agents and uses thereof” (priority 1993, dated 1996):
# Tested on: maximal electroshock seizures (MES)
# Assay: animal or person
# Type: in vivo, male Carworth Farms number-1 mice
# Settings: 30 minutes, 30 mg/kg, mice i.p.
# Procedure: (§1) Compounds were screened for anticonvulsant activity in male Carworth Farms number-1 mice. Test solutions of all compounds were prepared in 30% polyethylene glycol 400, and animals were dosed intraperitoneally at either 30 minutes or 4 hours prior to testing. Testing was conducted on four mice at each of three dose levels (30, 100, and 300 mg/kg).
# (§2) Maximal electroshock seizures (MES) were elicited with a 60 cycle alternatiing current of 50-mA intensity (five to seven times that necessary to evoke minimal electroshock threshold seizures). Current was delivered via corneal electrodes for 0.2 s. A drop of 0.9% saline was instilled in the eye prior to application of electrodes. Abolition of the hindlimb tonic extension component of the seizure was defined as protection in the MES test.
# as §1, with “Biological testing--Compounds” for “Compounds”, “number-one” for “number-1”, “min” for “minutes”, “h” for “hours”
# as §2, with “alternating” for “alternatiing”
row,Structure (SMILES),MES
1,"COC(=O)c1cc(N)c2c(Cl)cc(Cl)cc2n1 [4-amino-5,7-dichloro-2-quinoline carboxylate methyl ester]",0/1
2,"CNc1cc(C(=O)OC)nc2cc(Cl)cc(Cl)c12 [4-methylamino-5,7-dichloro quinoline 2-carboxylate methyl ester]",0/1

# Same assay, conditions: 30 minutes, 100 mg/kg, mice i.p.
row,Structure (SMILES),MES
1,"COC(=O)c1cc(N)c2c(Cl)cc(Cl)cc2n1 [4-amino-5,7-dichloro-2-quinoline carboxylate methyl ester]",0/3
2,"CNc1cc(C(=O)OC)nc2cc(Cl)cc(Cl)c12 [4-methylamino-5,7-dichloro quinoline 2-carboxylate methyl ester]",0/3

# Same assay, conditions: 30 minutes, 300 mg/kg, mice i.p.
row,Structure (SMILES),MES
1,"COC(=O)c1cc(N)c2c(Cl)cc(Cl)cc2n1 [4-amino-5,7-dichloro-2-quinoline carboxylate methyl ester]",0/1
2,"CNc1cc(C(=O)OC)nc2cc(Cl)cc(Cl)c12 [4-methylamino-5,7-dichloro quinoline 2-carboxylate methyl ester]",0/1

# Same assay, conditions: 4 hours, 30 mg/kg, mice i.p.
row,Structure (SMILES),MES
1,"COC(=O)c1cc(N)c2c(Cl)cc(Cl)cc2n1 [4-amino-5,7-dichloro-2-quinoline carboxylate methyl ester]",0/1
2,"CNc1cc(C(=O)OC)nc2cc(Cl)cc(Cl)c12 [4-methylamino-5,7-dichloro quinoline 2-carboxylate methyl ester]",0/1

# Same assay, conditions: 4 hours, 100 mg/kg, mice i.p.
row,Structure (SMILES),MES
1,"COC(=O)c1cc(N)c2c(Cl)cc(Cl)cc2n1 [4-amino-5,7-dichloro-2-quinoline carboxylate methyl ester]",1/3
2,"CNc1cc(C(=O)OC)nc2cc(Cl)cc(Cl)c12 [4-methylamino-5,7-dichloro quinoline 2-carboxylate methyl ester]",0/3

# Same assay, conditions: 4 hours, 300 mg/kg, mice i.p.
row,Structure (SMILES),MES
1,"COC(=O)c1cc(N)c2c(Cl)cc(Cl)cc2n1 [4-amino-5,7-dichloro-2-quinoline carboxylate methyl ester]",1/1
2,"CNc1cc(C(=O)OC)nc2cc(Cl)cc(Cl)c12 [4-methylamino-5,7-dichloro quinoline 2-carboxylate methyl ester]",0/1

# Tested on: pentylenetetrazole (Metrazol) induced seizures
# Assay: Subcutaneous pentylenetetrazole (Metrazol) seizure threshold test (Met) in mice
# Type: in vivo, male Carworth Farms number-1 mice
# Settings: 30 minutes, 30 mg/kg, mice i.p.
# Procedure: as §1
# (§3) In the subcutaneous pentylenetetrazole (Metrazol) seizure threshold test(met), 85 mg/kg pentylenetetrazole was administered as a 0.5% solution in the posterior midline. Protection in this test was defined as a failure to observe a single episode of clonic spasms of at least 5 s duration during the 30 minute period following administration of the convulsive agent.
# as §1, with “Biological testing--Compounds” for “Compounds”, “number-one” for “number-1”, “min” for “minutes”, “h” for “hours”
# as §3, with “test (Met),” for “test(met),”, “min” for “minute”
row,Structure (SMILES),Sc MET
1,"COC(=O)c1cc(N)c2c(Cl)cc(Cl)cc2n1 [4-amino-5,7-dichloro-2-quinoline carboxylate methyl ester]",0/1
2,"CNc1cc(C(=O)OC)nc2cc(Cl)cc(Cl)c12 [4-methylamino-5,7-dichloro quinoline 2-carboxylate methyl ester]",0/1

# Same assay, conditions: 30 minutes, 100 mg/kg, mice i.p.
row,Structure (SMILES),Sc MET
1,"COC(=O)c1cc(N)c2c(Cl)cc(Cl)cc2n1 [4-amino-5,7-dichloro-2-quinoline carboxylate methyl ester]",1/1
2,"CNc1cc(C(=O)OC)nc2cc(Cl)cc(Cl)c12 [4-methylamino-5,7-dichloro quinoline 2-carboxylate methyl ester]",0/1

# Same assay, conditions: 30 minutes, 300 mg/kg, mice i.p.
row,Structure (SMILES),Sc MET
1,"COC(=O)c1cc(N)c2c(Cl)cc(Cl)cc2n1 [4-amino-5,7-dichloro-2-quinoline carboxylate methyl ester]",0/1
2,"CNc1cc(C(=O)OC)nc2cc(Cl)cc(Cl)c12 [4-methylamino-5,7-dichloro quinoline 2-carboxylate methyl ester]",0/1

# Same assay, conditions: 4 hours, 30 mg/kg, mice i.p.
row,Structure (SMILES),Sc MET
1,"COC(=O)c1cc(N)c2c(Cl)cc(Cl)cc2n1 [4-amino-5,7-dichloro-2-quinoline carboxylate methyl ester]",0/1
2,"CNc1cc(C(=O)OC)nc2cc(Cl)cc(Cl)c12 [4-methylamino-5,7-dichloro quinoline 2-carboxylate methyl ester]",0/1

# Same assay, conditions: 4 hours, 100 mg/kg, mice i.p.
row,Structure (SMILES),Sc MET
1,"COC(=O)c1cc(N)c2c(Cl)cc(Cl)cc2n1 [4-amino-5,7-dichloro-2-quinoline carboxylate methyl ester]",0/1
2,"CNc1cc(C(=O)OC)nc2cc(Cl)cc(Cl)c12 [4-methylamino-5,7-dichloro quinoline 2-carboxylate methyl ester]",0/1

# Same assay, conditions: 4 hours, 300 mg/kg, mice i.p.
row,Structure (SMILES),Sc MET
1,"COC(=O)c1cc(N)c2c(Cl)cc(Cl)cc2n1 [4-amino-5,7-dichloro-2-quinoline carboxylate methyl ester]",0/1
2,"CNc1cc(C(=O)OC)nc2cc(Cl)cc(Cl)c12 [4-methylamino-5,7-dichloro quinoline 2-carboxylate methyl ester]",0/1

# Tested on: seizures induced by electroshock and pentylenetetrazole
# Assay: Anticonvulsant testing, overall (MES and Met)
# Type: in vivo, male Carworth Farms number-1 mice
# Settings: Phase I Identification: mice, i.p.; classes not defined in the patent
# Procedure: as §1, §2, §3
# as §1, with “Biological testing--Compounds” for “Compounds”, “number-one” for “number-1”, “min” for “minutes”, “h” for “hours”
# as §2, with “alternating” for “alternatiing”
# as §3, with “test (Met),” for “test(met),”, “min” for “minute”
row,Structure (SMILES),CLASS
1,"COC(=O)c1cc(N)c2c(Cl)cc(Cl)cc2n1 [4-amino-5,7-dichloro-2-quinoline carboxylate methyl ester]",1
2,"CNc1cc(C(=O)OC)nc2cc(Cl)cc(Cl)c12 [4-methylamino-5,7-dichloro quinoline 2-carboxylate methyl ester]",3

# Same assay, conditions: mice, intraperitoneal
row,Structure (SMILES),anticonvulsant activity (words)
1,"CNc1cc(C(=O)OC)nc2cc(Cl)cc(Cl)c12 [4-methylamino-5,7-dichloro quinoline 2-carboxylate methyl ester]",inactive

# Same assay, conditions: mice, intraperitoneal; listed as 4-methylamino-5,7-dichloro quinoline 2-carboxylate methyl ester
row,Structure (SMILES),anticonvulsant activity (words)
1,"CNc1cc(C(=O)OC)nc2cc(Cl)cc(Cl)c12 [4-methylamino-5,7-dichloro quinoline 2-carboxylate methyl ester]",lack of anticonvulsant activity

# Same assay, conditions: mice, intraperitoneal; listed as 5,7-di-Cl-4-methylamino-2-methyl ester
row,Structure (SMILES),anticonvulsant activity (words)
1,"CNc1cc(C(=O)OC)nc2cc(Cl)cc(Cl)c12 [4-methylamino-5,7-dichloro quinoline 2-carboxylate methyl ester]",inactive in anticonvulsant testing
